Results reported in PubChem BioAssay AID226 (DTP/NCI, 2004).
Several values for one entry are separate records, joined by “and”; a condition that tells them apart may be missing. Equal entries are not always repeated. Toxic doses and inconclusive results are not listed.

Test system: B6C3F1 mice, intracerebral ependymoblastoma, median survival T/C
Experiment: NCI In Vivo Anticancer Drug Screen. Data for tumor model Ependymoblastoma (intracerebral) in B6C3F1 mice
Settings: endpoint: median survival time, higher = longer survival
Experimental: The antitumor activity of compounds was measured in mice bearing transplantable tumors. Survival or tumor size were measured and the results are expressed as the measurement made in the treated group (T) divided by the measurement made in the vehicle treated control group (C). The tumor model used in this assay is Ependymoblastoma (intracerebral) in B6C3F1 mice

What does the source list for `O=NN(CCCl)C(=O)NC1CCC(=O)NC1=O` (configuration not stated)?
T/C (dose: 0.5 mg/kg/injection, schedule: Q01DX005 (ip), vehicle: Klucel (hydroxypropylcellulose) (HPC)): 91 % of control; T/C (dose: 0.5 mg/kg/injection, schedule: Q01DX005 (ip), vehicle: saline with Tween-80): 109 % of control; T/C (dose: 1.0 mg/kg/injection, schedule: Q01DX005 (ip), vehicle: Klucel (hydroxypropylcellulose) (HPC)): 114 % of control; T/C (dose: 1.0 mg/kg/injection, schedule: Q01DX005 (ip), vehicle: suspension in saline): 124 % of control; T/C (dose: 1.0 mg/kg/injection, schedule: Q01DX009 (ip), vehicle: saline with Tween-80): 241 % of control; T/C (dose: 2.0 mg/kg/injection, schedule: Q01DX005 (ip), vehicle: saline with Tween-80): 238 % of control; T/C (dose: 2.0 mg/kg/injection, schedule: Q01DX009 (ip), vehicle: saline with Tween-80): 241 % of control; T/C (dose: 2.59 mg/kg/injection, schedule: Q01DX005 (ip), vehicle: Klucel (hydroxypropylcellulose) (HPC)): 309 % of control; T/C (dose: 4.0 mg/kg/injection, schedule: Q01DX001 (ip), vehicle: saline + alcohol): 154 % of control; T/C (dose: 4.0 mg/kg/injection, schedule: Q01DX005 (ip), vehicle: Klucel (hydroxypropylcellulose) (HPC)): 207 % of control; T/C (dose: 4.0 mg/kg/injection, schedule: Q01DX005 (ip), vehicle: saline with Tween-80): 396 % of control; T/C (dose: 4.0 mg/kg/injection, schedule: Q01DX005 (ip), vehicle: suspension in saline): 179 % of control and 236 % of control and 260 % of control; T/C (dose: 4.32 mg/kg/injection, schedule: Q01DX005 (ip), vehicle: Klucel (hydroxypropylcellulose) (HPC)): 357 % of control; T/C (dose: 5.0 mg/kg/injection, schedule: Q01DX001 (ip), vehicle: DMSO): 112 % of control; T/C (dose: 6.0 mg/kg/injection, schedule: Q01DX005 (ip), vehicle: suspension in saline): 262 % of control and 267 % of control; T/C (dose: 7.2 mg/kg/injection, schedule: Q01DX001 (ip), vehicle: Klucel (hydroxypropylcellulose) (HPC)): 187 % of control; T/C (dose: 7.2 mg/kg/injection, schedule: Q01DX005 (ip), vehicle: Klucel (hydroxypropylcellulose) (HPC)): 357 % of control; T/C (dose: 8.0 mg/kg/injection, schedule: Q01DX001 (ip), vehicle: saline + alcohol): 229 % of control; T/C (dose: 8.0 mg/kg/injection, schedule: Q01DX005 (ip), vehicle: Klucel (hydroxypropylcellulose) (HPC)): 274 % of control; T/C (dose: 8.0 mg/kg/injection, schedule: Q01DX005 (ip), vehicle: saline with Tween-80): 172 % of control; T/C (dose: 8.0 mg/kg/injection, schedule: Q01DX005 (ip), vehicle: suspension in saline): 205 % of control; T/C (dose: 8.3 mg/kg/injection, schedule: Q01DX001 (ip), vehicle: DMSO): 226 % of control; T/C (dose: 10.0 mg/kg/injection, schedule: Q07DX003 (ip), vehicle: saline): 175 % of control; T/C (dose: 10.0 mg/kg/injection, schedule: Q07DX003 (ip), vehicle: suspension in saline): 252 % of control; T/C (dose: 12.0 mg/kg/injection, schedule: Q01DX001 (ip), vehicle: Klucel (hydroxypropylcellulose) (HPC)): 363 % of control; T/C (dose: 12.0 mg/kg/injection, schedule: Q01DX005 (ip), vehicle: Klucel (hydroxypropylcellulose) (HPC)): 357 % of control; T/C (dose: 13.8 mg/kg/injection, schedule: Q01DX001 (ip), vehicle: DMSO): 367 % of control; T/C (dose: 16.0 mg/kg/injection, schedule: Q01DX001 (ip), vehicle: saline + alcohol): 324 % of control; T/C (dose: 16.0 mg/kg/injection, schedule: Q01DX005 (ip), vehicle: saline with Tween-80): 114 % of control; T/C (dose: 20.0 mg/kg/injection, schedule: Q01DX001 (ip), vehicle: Klucel (hydroxypropylcellulose) (HPC)): 363 % of control; T/C (dose: 20.0 mg/kg/injection, schedule: Q07DX003 (ip), vehicle: saline): 99 % of control; T/C (dose: 20.0 mg/kg/injection, schedule: Q07DX003 (ip), vehicle: suspension in saline): 252 % of control; T/C (dose: 23.0 mg/kg/injection, schedule: Q01DX001 (ip), vehicle: DMSO): 367 % of control; T/C (dose: 32.0 mg/kg/injection, schedule: Q01DX001 (ip), vehicle: saline + alcohol): 324 % of control; T/C (dose: 32.0 mg/kg/injection, schedule: Q01DX001 (ip), vehicle: suspension in saline): 120 % of control; T/C (dose: 33.3 mg/kg/injection, schedule: Q01DX001 (ip), vehicle: Klucel (hydroxypropylcellulose) (HPC)): 90 % of control; T/C (dose: 38.4 mg/kg/injection, schedule: Q01DX001 (ip), vehicle: DMSO): 366 % of control
